Reference: patent US20210000955A1, “PHOTODYNAMICALLY ACTIVE ORGANOSILICA NANOPARTICLES AND MEDICAL USES THEREOF” (NANYANG TECHNOLOGICAL UNIVERSITY, priority 2017, published 2021)

Assays:
[1] = obtained online; cited from earlier work
SKMEL-28 cells = assay: In vitro oxidative stress detection; type: cell-based, Human; details: positive control, 1 μM, 15 minutes
Procedure: The in vitro oxidative stress was analyzed using the Image-IT® LIVE Green Reactive Oxygen Species Detection Kit from Thermo Fisher according to manufacturer's instructions. SKMEL-28 cells were seeded in a 12-well plate. PcNP was added at a final concentration of 25 μg/mL. After incubation for 12 hours, the cells were labelled with carboxy-H2DCFDA for 10 minutes and washed with PBS. The cells corresponding to the PcNP+hv treatment were irradiated with 730 nm, 0.75 W/cm^2 laser for 20 minutes. A positive control using common ROS production inducer TBHP was added to a final concentration of 1 μM and incubated for 15 minutes. After the treatment, the cell nuclei were labeled with Hoechst 33342 (1 μM). Coverslips were then washed with PBS, fixed and mounted onto microscopy glass slides for imaging by CLSM. Carboxy-H2DCFDA λex/em: 488/529 nm, Hoechst 33342 λex/em: 350/461 nm.

[2] = Topical penetration of porcine skin, IVIS fluorescence; type: in vitro ADME; details: regardless of the microneedle treatment
Procedure: Fresh full-thickness porcine skin was obtained from a local wholesaler and cut into 1 cm by 1 cm pieces. The subcutaneous fats were gently stripped from the porcine skin. Any remaining skin was kept frozen at −20° C. and used as soon as possible. A pyramidal stainless steel microneedle patch consisting of 100 needles in a 10×10 array with a height of ˜500 μm, a tip radius of 5 μm, a pitch of ˜700 μm and a base width of ˜300 μm was obtained from Micropoint Technologies Pte Ltd (Singapore). […] PcNP solution at 20 mg/mL concentration was compared against free Pc (equivalent to the concentration of Pc in PcNP at 20 mg/mL). The penetration of PcNP was tested after two durations: 10 minutes and 1 hour. The penetration was conducted with and without the help of the microneedle patch. Briefly, if required, the skin was pierced with the microneedle patch under a force of about 4 N for 10 seconds before its removal. […] The fluorescence intensity of the adsorbed Pc was measured using an IVIS SpectrumCT Pre-clinical in Vivo Imaging System (Perkin Elmer), where λex/em is 640/700-760 nm. […] To calculate the percentage of PcNP that penetrated into the skin, the intensity reading for each skin was normalized against that of PBS and PcNP positive control. In the case of free Pc penetration, this percentage was calculated by normalizing the readings against that of PBS and free Pc positive control.

## CN(C)c1ccc2nc3ccc(=[N+](C)C)cc-3sc2c1 [MB, methylene blue]
[1]
  singlet oxygen quantum yield ΦΔ(MB), reference value: 0.52

## CC(C)(C)OO [TBHP, tert-Butyl hydroperoxide]
SKMEL-28 cells
  cells oxidatively stressed: about 74%

## c1ccc2c(c1)-c1nc-2nc2[nH]c(nc3nc(nc4[nH]c(n1)c1ccccc41)-c1ccccc1-3)c1ccccc21 [free Pc, Phthalocyanine]
[2]
  skin penetration: minimal skin penetration
